Experimental data from patent publication US20210346315A1, “COMPOSITION FOR INHIBITION OR TREATMENT OF BRAIN TUMORS OR SYMPTOMS ATTRIBUTABLE THERETO” (ENEOS Corporation, priority 2018, published 2021).

Assays:
[1] = tested on: human-derived glioma cell line U251MG; assay: Cell proliferative capacity / cell viability of human-derived glioma cell line U251MG (CCK-8); format: cell-based; conditions: for cell viability (proliferation) vs the control group: after 96 hours, 0.1, 1.0, 5 or 10 μM
Method: (§1) As the glioma cell lines, the mouse-derived glioma cell line GL261 (transferred from Graduate School of Health Sciences, Gunma University) and the human-derived glioma cell line U251MG (DS Pharma Biomedical Co., Ltd.) were used. First, the glioma cell lines were seeded in a 96-well plate (FALCON) at 2,000 cells/well. Using Dulbecco's modified Eagle's medium (DMEM) (Nacalai Tesque, Inc.) containing 10% fetal bovine serum (FBS) (Valeant Pharmaceuticals International, Inc.), 100 U/mL penicillin, and 100 μg/mL streptomycin (Meiji Seika Pharma Co., Ltd.), seeded cells were cultured for 24 hours at 37° C. under 5% CO2. Then, the medium was replaced with DMEM containing 10% FBS so that the concentration was 90 μL/well. After the medium replacement, a test solution was further added according to each test group. Specifically, in the control group, 10 μL of PBS containing 0.1% DMSO (Nacalai Tesque, Inc.) was added (n=6). In the temozolomide group, temozolomide (Tokyo Chemical Industry Co., Ltd.) was dissolved in PBS containing 0.1% DMSO to obtain a temozolomide solution. Then, 10 μL of the temozolomide solution was added so that the final concentration of temozolomide was 300 μM (n=6). In the astaxanthin and adonixanthin groups, astaxanthin or adonixanthin was dissolved in PBS containing 0.1% DMSO to obtain an astaxanthin or adonixanthin solution. Then, 10 μL each of the astaxanthin or adonixanthin solution was added so that the final concentration of astaxanthin or adonixanthin was 0.1, 1.0, 5, or 10 μM (n=6). At 72 hours and 96 hours after addition of each test solution, the viable cell count of GL261 and U251MG was measured using cell counting kit-8 (CCK-8) (DOJINDO LABORATORIES). Specifically, using a microplate reader (Varioscan Flash 2.4, Thermo Fisher Scientific K.K.) at the time of addition and 2 hours after addition of CCK-8, the absorbance was measured at 450 nm, and the viable cell count was measured using the absorbance at 650 nm as a reference. For example, in the case of 72-hour treatment, CCK-8 was added 70 hours after addition of the test solution, and the absorbance was measured. The absorbance was measured again 2 hours after addition of CCK-8. The value obtained by subtracting the absorbance immediately after addition of CCK-8 as the background from the absorbance 2 hours after addition of CCK-8 was used as data. In the same manner as in Test Example 1, effects of adonirubin or zeaxanthin on the cell proliferative capacity after 72 hours of a human- or mouse-derived glioma cell line were investigated. As adonirubin, the adonirubin obtained in Preparation Example 1 was used, and as zeaxanthin, Zeaxanthin (manufacturer code ASB-00026504, ChromaDex Corporation) was used. Specifically, the glioma cell lines were seeded in a 96-well plate at 2,000 cells/well. Using DMEM containing 10% FBS, 100 U/mL penicillin, and 100 μg/mL streptomycin, seeded cells were cultured for 24 hours at 37° C. under 5% CO2. Then, the medium was replaced with DMEM containing 10% FBS so that the concentration was 90 μL/well. After the medium replacement, a test solution was further added according to each test group. Specifically, in the control group, 10 μL of PBS containing 0.1% DMSO (Nacalai Tesque, Inc.) was added (n=6). In the temozolomide group, temozolomide was dissolved in PBS containing 0.1% DMSO to obtain a temozolomide solution. Then, 10 μL of the temozolomide solution was added so that the final concentration of temozolomide was 300 μM (n=6). In the adonirubin and zeaxanthin groups, adonirubin or zeaxanthin was dissolved in PBS containing 0.1% DMSO to obtain an adonirubin or zeaxanthin solution. Then, 10 μL each of the adonirubin or zeaxanthin solution was added so that the final concentration of adonirubin or zeaxanthin was 0.1, 1.0, 5, or 10 μM (n=6). At 72 hours after addition of each test solution, the cell proliferative capacity of GL261 and U251MG was evaluated using CCK-8 in the same manner as in Test Example 1.

[2] = tested on: mouse-derived glioma cell line GL261; assay: Cell proliferative capacity / cell viability of mouse-derived glioma cell line GL261 (CCK-8); format: cell-based; conditions: for average value of cell viability, concentration dependence: 0.1 to 10 μM; for cell viability (proliferation) vs the control group: GL261, after 96 hours, 0.1, 1.0, 5 or 10 μM
Method: as §1

[3] = Intracerebral distribution of astaxanthin or adonixanthin in cynomolgus monkey (HPLC of brain organs); format: in vivo; conditions: 50 mg/kg body weight once daily for 10 days into the stomach, FIG. 5
Method: Each of the astaxanthin and the adonixanthin obtained in Preparation Example 1 was weighed, followed by suspension by adding olive oil (product number 150-00276, manufactured by Wako Pure Chemical Industries, Ltd.) to prepare so that each concentration was 10 mg/mL, thus obtaining an astaxanthin dosing solution and an adonixanthin dosing solution. Each dosing solution was prepared at the time of use, and stored on ice and protected from light until administration.
As experimental animals, cynomolgus monkeys were used. […] The dose in each administration was calculated based on the latest body weight at each administration time point (body weight was measured using an electric balance (HP-40K or GP-40K, both of which were manufactured by A&D Company, Limited) on each of the day of initiation of acclimation, the day of end of acclimation, the day of initiation of administration, and before administration on the day 8 of administration). […]
Each of the concentration of adonixanthin in each organ collected from the adonixanthin-administering monkey (concentration relative to the weight of each organ) and the concentration of astaxanthin in each organ collected from the astaxanthin-administering monkey (concentration relative to the weight of each organ) was measured. […]

[4] = after 72 hours, 0.1, 1.0, 5 or 10 μM
[5] = GL261, after 72 hours, all concentrations (0.1, 1.0, 5 or 10 μM)
[6] = GL261, after 72 hours, 10 μM group

Compound | cell proliferative capacity vs the control group [1, 4] | cell proliferative capacity vs the control group ([1]; after 72 hours, 1, 5, and 10 μM groups) | cell viability (proliferation) vs the control group ([1]; FIG. 1) | proliferation inhibition compared with the astaxanthin group ([1]; after 96 hours, FIG. 1) | average value of cell viability, concentration dependence ([2]; GL261, after 72 hours) | cell proliferative capacity vs the control group [2, 5] | cell viability (proliferation) vs the control group ([2]; FIG. 2) | proliferation inhibition compared with the astaxanthin group ([2]; GL261, after 96 hours, FIG. 2) | concentration in the brain compared with astaxanthin [3] | concentration in each organ of the brain (transfer into the brain and retention) ([3]; organs collected after blood sampling 4 hours after last administration) | proliferation inhibition compared with the adonirubin group ([1]; after 72 hours) | cell proliferative capacity vs the control group [2, 6] | proliferation inhibition compared with the zeaxanthin group ([2]; GL261, after 72 hours)
CC1=C(/C=C/C(C)=C/C=C/C(C)=C/C=C/C=C(C)/C=C/C=C(C)/C=C/C2=C(C)C(=O)C(O)CC2(C)C)C(C)(C)CC(O)C1 (stereo not drawn) [adonixanthin, 3,3′-dihydroxy-β,β-carotene-4-one] | tends to be concentration-dependently inhibited | significantly inhibited | significantly inhibited at any concentration | inhibited at a higher level | tends to concentration-dependently decrease | significantly inhibited | significantly inhibited at any concentration | inhibited at a higher level | transferred into the brain at a higher concentration | transferred into the brain at a high concentration |  |  | 
CC1=C(/C=C/C(C)=C/C=C/C(C)=C/C=C/C=C(C)/C=C/C=C(C)/C=C/C2=C(C)C[C@@H](O)CC2(C)C)C(C)(C)C[C@H](O)C1 [zeaxanthin, β,β-carotene-3,3′-diol] | significantly inhibited at any concentration |  |  |  |  | tends to be inhibited at any concentration |  |  |  |  | inhibited at a higher level | significantly inhibited | 
CC1=C(/C=C/C(C)=C/C=C/C(C)=C/C=C/C=C(C)/C=C/C=C(C)/C=C/C2=C(C)C(=O)C(O)CC2(C)C)C(C)(C)CCC1=O (stereo not drawn) [adonirubin, 3-hydroxy-β,β-carotene-4,4′-dione] | tends to be inhibited at any concentration |  |  |  |  | significantly inhibited at any concentration |  |  |  |  |  |  | inhibited at a higher level
CC1=C(/C=C/C(C)=C/C=C/C(C)=C/C=C/C=C(C)/C=C/C=C(C)/C=C/C2=C(C)C(=O)C(O)CC2(C)C)C(C)(C)CC(O)C1=O (stereo not drawn) [astaxanthin, 3,3′-dihydroxy-β,β-carotene-4,4′-dione] | tends to be concentration-dependently inhibited |  | significantly inhibited at any concentration |  | tends to concentration-dependently decrease |  | significantly inhibited at any concentration |  |  |  |  | significantly inhibited | 
